The conditions of series [1]: obtained online; cited from earlier work.
For a further series, the system named is SKMEL-28 cells. The experiment in a line: In vitro oxidative stress detection. The series is classed as cell-based, Human. To be noted: positive control, 1 μM, 15 minutes. The procedure:
The in vitro oxidative stress was analyzed using the Image-IT® LIVE Green Reactive Oxygen Species Detection Kit from Thermo Fisher according to manufacturer's instructions. SKMEL-28 cells were seeded in a 12-well plate. PcNP was added at a final concentration of 25 μg/mL. After incubation for 12 hours, the cells were labelled with carboxy-H2DCFDA for 10 minutes and washed with PBS. The cells corresponding to the PcNP+hv treatment were irradiated with 730 nm, 0.75 W/cm^2 laser for 20 minutes. A positive control using common ROS production inducer TBHP was added to a final concentration of 1 μM and incubated for 15 minutes. After the treatment, the cell nuclei were labeled with Hoechst 33342 (1 μM). Coverslips were then washed with PBS, fixed and mounted onto microscopy glass slides for imaging by CLSM. Carboxy-H2DCFDA λex/em: 488/529 nm, Hoechst 33342 λex/em: 350/461 nm.

A short description of series [2]: Topical penetration of porcine skin, IVIS fluorescence. The format is in vitro ADME. To be noted: regardless of the microneedle treatment. The procedure: Fresh full-thickness porcine skin was obtained from a local wholesaler and cut into 1 cm by 1 cm pieces. The subcutaneous fats were gently stripped from the porcine skin. Any remaining skin was kept frozen at −20° C. and used as soon as possible. A pyramidal stainless steel microneedle patch consisting of 100 needles in a 10×10 array with a height of ˜500 μm, a tip radius of 5 μm, a pitch of ˜700 μm and a base width of ˜300 μm was obtained from Micropoint Technologies Pte Ltd (Singapore). […] PcNP solution at 20 mg/mL concentration was compared against free Pc (equivalent to the concentration of Pc in PcNP at 20 mg/mL). The penetration of PcNP was tested after two durations: 10 minutes and 1 hour. The penetration was conducted with and without the help of the microneedle patch. Briefly, if required, the skin was pierced with the microneedle patch under a force of about 4 N for 10 seconds before its removal. […] The fluorescence intensity of the adsorbed Pc was measured using an IVIS SpectrumCT Pre-clinical in Vivo Imaging System (Perkin Elmer), where λex/em is 640/700-760 nm. […] To calculate the percentage of PcNP that penetrated into the skin, the intensity reading for each skin was normalized against that of PBS and PcNP positive control. In the case of free Pc penetration, this percentage was calculated by normalizing the readings against that of PBS and free Pc positive control.

Data on 3 molecules can be found in patent US20210000955A1, “PHOTODYNAMICALLY ACTIVE ORGANOSILICA NANOPARTICLES AND MEDICAL USES THEREOF” (NANYANG TECHNOLOGICAL UNIVERSITY, priority 2017, published 2021).

Turning to `CN(C)c1ccc2nc3ccc(=[N+](C)C)cc-3sc2c1` [MB, methylene blue], the “singlet oxygen quantum yield ΦΔ(MB), reference value” in series [1] is 0.52. For the molecule `CC(C)(C)OO` [TBHP, tert-Butyl hydroperoxide], in the series with SKMEL-28 cells, the cells oxidatively stressed entry is listed as “about 74%”.

`c1ccc2c(c1)-c1nc-2nc2[nH]c(nc3nc(nc4[nH]c(n1)c1ccccc41)-c1ccccc1-3)c1ccccc21` [free Pc, Phthalocyanine]: the skin penetration result in series [2] is “minimal skin penetration”.
